In ChEMBL document CHEMBL3045487, “Bioactivity guided isolation of antiinflammatory, analgesic, and antipyretic constituents from the leaves of Pedilanthus tithymaloides (L.)” (Med Chem Res, 2013):

Tests used:
Mus musculus [1] = test: Anti-inflammatory activity in Swiss albino Mus musculus (mouse) assessed as inhibition of carrageenan-induced paw edema at 10 mg/kg, ip administered 30 min prior to carrageenan-challenge measured after 5 hr relative to control; type: functional; conditions: route intraperitoneal
Mus musculus [2] = test: Anti-inflammatory activity in Swiss albino Mus musculus (mouse) assessed as inhibition of cotton pellet-induced granuloma formation at 10 mg/kg, po administered QD for 5 days measured at 1 hr post-last dose relative to control; type: functional
Mus musculus [3] = test: Toxicity in Swiss albino Mus musculus (mouse) assessed as abdominal constriction up to 100 mg/kg, po measured up to 24 hr relative to control; type: organism-based, Abdomen; set-up: dose 100 mg/kg, route oral; conditions: in vivo
Mus musculus [4] = test: Antinociceptive activity Swiss albino Mus musculus (mouse) assessed as inhibition of formalin-induced paw licking at 10 mg/kg, po administered 60 min prior to formalin-challenge measured from 15 to 30 min relative to control; type: functional
Mus musculus [5] = test: Toxicity in Swiss albino Mus musculus (mouse) assessed as tremors up to 100 mg/kg, po measured up to 24 hr relative to control; type: organism-based; set-up: dose 100 mg/kg, route oral; conditions: in vivo
Mus musculus [6] = test: Toxicity in Swiss albino Mus musculus (mouse) assessed as ataxia up to 100 mg/kg, po measured up to 24 hr relative to control; type: organism-based; set-up: dose 100 mg/kg, route oral; conditions: in vivo
Mus musculus [7] = test: Antinociceptive activity in Swiss albino Mus musculus (mouse) assessed as inhibition of acetic acid-induced writhing at 10 mg/kg, po administered 1 hr prior to acetic acid-challenge measured up to 20 min relative to control; type: functional
Mus musculus [8] = test: Toxicity in Swiss albino Mus musculus (mouse) assessed as convulsions up to 100 mg/kg, po measured up to 24 hr relative to control; type: organism-based; set-up: dose 100 mg/kg, route oral; conditions: in vivo
Mus musculus [9] = test: Antinociceptive activity Swiss albino Mus musculus (mouse) assessed as inhibition of formalin-induced paw licking at 10 mg/kg, po administered 60 min prior to formalin-challenge measured up to 5 min relative to control; type: functional
Mus musculus [10] = test: Toxicity in Swiss albino Mus musculus (mouse) assessed as weight loss up to 100 mg/kg, po measured up to 24 hr relative to control; type: organism-based; set-up: dose 100 mg/kg, route oral; conditions: in vivo
Mus musculus [11] = test: Toxicity in Swiss albino Mus musculus (mouse) assessed as presence of secretions up to 100 mg/kg, po measured up to 24 hr relative to control; type: organism-based; set-up: dose 100 mg/kg, route oral; conditions: in vivo
Mus musculus [12] = test: Toxicity in Swiss albino Mus musculus (mouse) assessed as effect on mobility up to 100 mg/kg, po measured up to 24 hr relative to control; type: organism-based; set-up: dose 100 mg/kg, route oral; conditions: in vivo
Mus musculus [13] = test: Toxicity in Swiss albino Mus musculus (mouse) assessed as diarrhea up to 100 mg/kg, po measured up to 24 hr relative to control; type: organism-based; set-up: dose 100 mg/kg, route oral; conditions: in vivo
Mus musculus [14] = test: Toxicity in Swiss albino Mus musculus (mouse) assessed as lethargy up to 100 mg/kg, po measured up to 24 hr relative to control; type: organism-based; set-up: dose 100 mg/kg, route oral; conditions: in vivo
Mus musculus [15] = test: Toxicity in Swiss albino Mus musculus (mouse) assessed as mortality up to 100 mg/kg, po measured up to 72 hr; type: organism-based; set-up: dose 100 mg/kg, route oral; conditions: in vivo
Mus musculus [16] = test: Anti-inflammatory activity in Swiss albino Mus musculus (mouse) assessed as inhibition of carrageenan-induced paw edema at 10 mg/kg, ip administered 30 min prior to carrageenan-challenge measured after 3 to 4 hr relative to control; type: functional; conditions: route intraperitoneal
Mus musculus [17] = test: Antinociceptive activity Swiss albino Mus musculus (mouse) assessed as inhibition of formalin-induced paw licking at 10 mg/kg, po administered 30 min prior to formalin-challenge measured up to 5 min relative to control; type: functional
Mus musculus [18] = test: Antinociceptive activity Swiss albino Mus musculus (mouse) assessed as inhibition of formalin-induced paw licking at 10 mg/kg, po administered 30 min prior to formalin-challenge measured from 15 to 30 min relative to control; type: functional
Rattus norvegicus [19] = test: Antipyretic activity in Wistar albino Rattus norvegicus (rat) assessed as brewer's yeast-induced rectal temperature at 10 mg/kg, po measured at 22 hr (reference value: 39.1+/- 0.18 degC); type: functional
Rattus norvegicus [20] = test: Antipyretic activity in Wistar albino Rattus norvegicus (rat) assessed as brewer's yeast-induced rectal tempeRattus norvegicus (rat)ure at 10 mg/kg, po measured at 20 hr (reference value: 39.1+/- 0.18 degC); type: functional
Rattus norvegicus [21] = test: Antipyretic activity in Wistar albino Rattus norvegicus (rat) assessed as brewer's yeast-induced rectal tempeRattus norvegicus (rat)ure at 10 mg/kg, po measured at 19 hr (reference value: 39.3 +/- 0.11 degC); type: functional
Rattus norvegicus [22] = test: Antipyretic activity in Wistar albino Rattus norvegicus (rat) assessed as brewer's yeast-induced rectal tempeRattus norvegicus (rat)ure at 10 mg/kg, po measured at 23 hr (reference value: 39.1+/- 0.18 degC); type: functional
Rattus norvegicus [23] = test: Antipyretic activity in Wistar albino Rattus norvegicus (rat) assessed as brewer's yeast-induced rectal tempeRattus norvegicus (rat)ure at 10 mg/kg, po measured at 21 hr (reference value: 39.1+/- 0.18 degC); type: functional
Rattus norvegicus [24] = test: Antipyretic activity in Wistar albino Rattus norvegicus (rat) assessed as brewer's yeast-induced rectal tempeRattus norvegicus (rat)ure at 150 mg/kg, po measured at 21 hr (reference value: 39.1+/- 0.18 degC); type: functional
Rattus norvegicus [25] = test: Antipyretic activity in Wistar albino Rattus norvegicus (rat) assessed as brewer's yeast-induced rectal tempeRattus norvegicus (rat)ure at 150 mg/kg, po measured at 19 hr (reference value: 39.3 +/- 0.11 degC); type: functional
Rattus norvegicus [26] = test: Antipyretic activity in Wistar albino Rattus norvegicus (rat) assessed as brewer's yeast-induced rectal tempeRattus norvegicus (rat)ure at 150 mg/kg, po measured at 23 hr (reference value: 39.1+/- 0.18 degC); type: functional
Rattus norvegicus [27] = test: Antipyretic activity in Wistar albino Rattus norvegicus (rat) assessed as brewer's yeast-induced rectal tempeRattus norvegicus (rat)ure at 150 mg/kg, po measured at 20 hr (reference value: 39.1+/- 0.18 degC); type: functional
Rattus norvegicus [28] = test: Antipyretic activity in Wistar albino Rattus norvegicus (rat) assessed as brewer's yeast-induced rectal tempeRattus norvegicus (rat)ure at 150 mg/kg, po measured at 22 hr (reference value: 39.1+/- 0.18 degC); type: functional
Mus musculus [29] = species on record: Mus musculus; test: animal or person; conditions: Swiss albino, po, read-out: INH
Description: Antinociceptive activity Swiss albino Mus musculus (mouse) assessed as inhibition of formalin-induced paw licking at 5 mg/kg, po administered 30 min prior to formalin-challenge measured from 15 to 30 min relative to control

Mus musculus [30] = species on record: Mus musculus; test: animal or person; conditions: Swiss albino, po, read-out: INH; remark: listed apart in the source
Description: Antinociceptive activity Swiss albino Mus musculus (mouse) assessed as inhibition of formalin-induced paw licking at 5 mg/kg, po administered 30 min prior to formalin-challenge measured up to 5 min relative to control

Structure (SMILES)	inhibition in vivo at 10 mg/kg (Mus musculus [2])	Activity (Mus musculus [3])	inhibition in vivo at 10 mg/kg (Mus musculus [4])	Activity (Mus musculus [5])	Activity (Mus musculus [6])	inhibition in vivo at 10 mg/kg (Mus musculus [7])	Activity (Mus musculus [8])	inhibition in vivo at 10 mg/kg (Mus musculus [9])	Activity (Mus musculus [10])	Activity (Mus musculus [11])	Activity (Mus musculus [12])	Activity (Mus musculus [13])	Activity (Mus musculus [14])	Activity (Mus musculus [15])	inhibition in vivo at 10 mg/kg (Mus musculus [16])	also measured
COc1ccc2c(c1)c(CC(=O)O)c(C)n2C(=O)c1ccc(Cl)cc1 [INDOMETHACIN]	45.5%															inhibition in vivo at 10 mg/kg (Mus musculus [1]): 61.1%
O=c1cc(-c2ccc(O)c(O)c2)oc2cc(O)cc(O)c12 [LUTEOLIN]	37%	Non-toxic	48.6%	Non-toxic	Non-toxic	55.4%	Non-toxic	40.3%	Non-toxic	Non-toxic	Non-toxic	Non-toxic	Non-toxic	Non-toxic		inhibition in vivo at 10 mg/kg (Mus musculus [1]): 50%
CCCCCCCCCCCCC(O)COS(=O)(=O)[O-].[Na+] (stereo unspecified)	12.9%	Non-toxic		Non-toxic	Non-toxic		Non-toxic		Non-toxic	Non-toxic	Non-toxic	Non-toxic	Non-toxic	Non-toxic	33.3%	
C[C@H]1[C@H](C)CC[C@]2(C(=O)O)CC[C@]3(C)C(=CC[C@@H]4[C@@]5(C)CC[C@H](O)C(C)(C)[C@@H]5CC[C@]43C)[C@H]12 [URSOLIC ACID]	38.5%	Non-toxic	61.4%	Non-toxic	Non-toxic	50.3%	Non-toxic	43.6%	Non-toxic	Non-toxic	Non-toxic	Non-toxic	Non-toxic	Non-toxic		
CC(=O)O[C@H]1CC[C@@H]2[C@](C)(CC[C@H]3[C@@]2(C)CC[C@@]2(C)[C@H]4CC(C)(C)CC[C@]4(C)CC[C@]32C)[C@H]1C [EPIFRIEDELANYL ACETATE]	24.9%	Non-toxic		Non-toxic	Non-toxic		Non-toxic		Non-toxic	Non-toxic	Non-toxic	Non-toxic	Non-toxic	Non-toxic	30.6%	
O=C(O)Cc1ccccc1Nc1c(Cl)cccc1Cl [DICLOFENAC SODIUM]						90.9%										inhibition in vivo at 10 mg/kg (Mus musculus [17]): 20.1%; inhibition in vivo at 10 mg/kg (Mus musculus [18]): 97.6%
CC[C@H](CC[C@@H](C)[C@H]1CC[C@H]2[C@@H]3CC=C4C[C@@H](O)CC[C@]4(C)[C@H]3CC[C@]12C)C(C)C [BETA-SITOSTEROL]	30.4%	Non-toxic		Non-toxic	Non-toxic		Non-toxic		Non-toxic	Non-toxic	Non-toxic	Non-toxic	Non-toxic	Non-toxic		T (Rattus norvegicus [19]): 38 °C; T (Rattus norvegicus [20]): 38.1 °C; T (Rattus norvegicus [21]): 39.6 °C; T (Rattus norvegicus [22]): 37.9 °C; T (Rattus norvegicus [23]): 38.1 °C
CC(=O)Nc1ccc(O)cc1 [ACETAMINOPHEN]																T (Rattus norvegicus [24]): 38 °C; T (Rattus norvegicus [25]): 39.6 °C; T (Rattus norvegicus [26]): 37.7 °C; T (Rattus norvegicus [27]): 38 °C; T (Rattus norvegicus [28]): 37.9 °C
C[C@H]1[C@H](O)CC[C@@H]2[C@]1(C)CC[C@H]1[C@@]2(C)CC[C@@]2(C)[C@H]3CC(C)(C)CC[C@]3(C)CC[C@]12C [FRIEDELANOL]	29.2%	Non-toxic	42.9%	Non-toxic	Non-toxic	45.8%	Non-toxic	35.7%	Non-toxic	Non-toxic	Non-toxic	Non-toxic	Non-toxic	Non-toxic	36.1%	
CN1CC[C@]23c4c5ccc(O)c4O[C@H]2[C@@H](O)C=C[C@H]3[C@H]1C5 [MORPHINE]																inhibition in vivo at 5 mg/kg (Mus musculus [29]): 100%; inhibition in vivo at 5 mg/kg (Mus musculus [30]): 68%
